This is an account of results in US12129305B2, “Targeting CLPTM1L for treatment and prevention of cancer” (The Medical College of Wisconsin, Inc., priority 2018, dated 2024).

In assay [1] the test system is ID8-luc ovarian tumor cells. Kind of assay: ID8-luc orthotopic syngeneic ovarian isograft model. It counts as in vivo, C57bl/6 mice. The following applies: carboplatin alone, 10 mg/kg weekly for three weeks; over 35 days. The procedure:
ID8-luc model: Five-week-old C57bl/6 mice (Jackson labs strain 664) were acclimated for one week and injected intraperitoneally with […] luciferase expressing ID8 syngeneic ovarian tumor cells suspended in 200 μL of PBS under Medical College of Wisconsin animal protocol AUA6339. One week after injection, antibodies and/or chemotherapeutic agents were administered intraperitoneally at the indicated doses. Chemotherapeutic doses or vehicle were administered one day before control or therapeutic antibody doses. Imaging and analysis of luciferin radiance was done up to twice weekly on an IVIS Spectrum-CT Imaging System equipped with thermoelectrically-cooled CCD camera. Mice were monitored twice weekly for weight and signs of morbidity. Mice were euthanized after 45 days or upon signs of morbidity. Animal studies were conducted using the standards for humane treatment of animals as described in the U.S. Public Health Service Policy on Humane Care and Use of Laboratory Animals.
With disseminated peritoneal disease being the most common presentation upon recurrence of ovarian carcinoma, we utilized an orthotopic isograft model of disseminated peritoneal ovarian cancer. Human anti-CLPTM1L binding to luciferase-expressing ID8 ovarian tumor cells (ID8-luc) was detected by flow cytometry (FIG. 31A). […] Tumor load was monitored by luciferin luminescence using whole body imaging. […]

Assay [2] deals with Caspase-3 cleavage and Akt phosphorylation in SL3cis. Kind of assay: Western blotting of SL3cis lysates for caspase cleavage and Akt phosphorylation. Type of assay: cell-based, human. As to conditions: SL3cis spheroids. The procedure: (A) A2780 apoptotic killing (casp 3/7 live imaging) after 36 hour mAb treatment (scFv clones 102-4a left, 102-5a right) and 24-hour carboplatin treatment. (B) Dose-response to up to 20 μM carboplatin in resistant A2780 cells treated with either control IgG1 or 102-5, relative to 0 carboplatin controls. (C) Kinetic killing assay (live imaging) in A2780 with human anti-CLP™1L scFv and/or 10 μM carboplatin treatment. *p<0.05, **p<0.005, ***p<0.0005. (D) Western blotting and densitometry for Akt and phospho-Akt (T308) in A2780 andA2780cis. […]
Cells were lysed with 100 μL of 1× NP40 lysis buffer containing proteinase inhibitors, sheared 10 times with a 28-gauge needle, spun at 16,000×g for 30 minutes, normalized by protein concentration as determined by the Bradford method, and the supernatant boiled for 5 minutes. Twenty microliters of normalized lysate were resolved by SDS-PAGE on 10% acrylamide gels at 150 volts for 1 hour, transferred by iBlot dry transfer (Life Technologies), blocked for 2 hours with TBST 10% milk, incubated with primary antibodies at 1:1000 in TBST 5% milk at 4C overnight with rocking, washed 3×5 minutes with TBST, incubated with secondary anti-rabbit-HRP (Santa Cruz Biotechnology) or goat anti-human-HRP (Invitrogen MH1715) at 1:10,000 in TBST 5% milk for 2 hours with rocking, washed 5×10 minutes with TBST, and signal analyzed using a Biorad Chemidoc XRS. […]

The subject of assay [3] is SL3-cis platinum resistant xenografts. Kind of assay: SL3 xenograft model, cisplatin resistant. It counts as in vivo, NU/J mice. The following applies: weekly 2.5 mg/kg cisplatin and/or 5 mg/kg 102-5; 24 days post-inoculation. The method, then: (§1) Four-week old female NU/J mice (2019, Jackson Laboratories) were acclimated for 1 week before injection of 0.5×10^6 parental SL3 or 1×10^6 cisplatin-resistant SL3-cis cells subcutaneously into the flank in 200 μL PBS. Tumors were measured with calipers and volumes were calculated by ½ (W×W×L). After tumors had grown to an average of 100 mm^3, mice were separated into groups of 5 mice, each group with 100 mm^3 average tumor sizes. Mice were treated weekly with intraperitoneal doses of PBS control, cisplatin 2.5 mg/kg, and/or 102-5 5 mg/kg in 200 μL of PBS at room temperature beginning on day 6 post-inoculation. Cisplatin treatments were administered 24 hours following antibody treatment. Tumor volume was measured at least weekly. Animal health was monitored daily and animal weights measured at least weekly. All procedures were reviewed and approved by MCW IACUC committee #2 under AUA6339.
(§2) J/NU mice xenografted with SL3 parental or SL3-cis platinum resistant cells were treated weekly with control vehicles, 2.5 mg/kg cisplatin, and/or 5 mg/kg 102-5 anti-CLPTM1L. The effects of cisplatin and those of 102-5 on cisplatin treatment were investigated in this model rather than those of carboplatin since the SL3cis line was developed specifically as a cisplatin resistant line.

A further assay relates to SL3 parental xenografts. Kind of assay: SL3 xenograft model, parental. As to conditions: weekly 2.5 mg/kg cisplatin and/or 5 mg/kg 102-5; 24 days post-inoculation. It counts as in vivo, NU/J mice. The method, then: as §1, §2

`N.N.O=C([O-])C1(C(=O)[O-])CCC1.[Pt+2]` [carboplatin, reference compound] had a tumor load in assay [1] of 1.23 fold.

With `N.N.[Cl][Pt][Cl]` [cisplatin, reference compound], in assay [2], the “Akt phosphorylation at threonine 308” value was “induced by cisplatin treatment”. The Caspase-3 cleavage entry in assay [2] (16 days of growth) was “Caspase-3 cleavage was induced”. In addition, in assay [3], the tumor growth result is “significantly inhibited tumor growth only in combination therapy with 102-5 anti-CLPTM1L”. Besides, the “tumor growth and volumes” value in the assay with SL3 parental xenografts is recorded as “significantly inhibited”.
